According to patent US20120114797A1, “TALAROMYCES STRAINS AND ENZYME COMPOSITIONS” (DSM IP ASSETS B.V., priority 2009, published 2012):

Assays:
[1] = test system: TEC-142; experiment: MIC of glucose analogs on YNB+agar plates, TEC-142; assay type: cell-based, Talaromyces emersonii; conditions: 10^7/ml spore suspensions of TEC-142 on YNB+agar plates
Description: MIC values of various glucose analogs (2-deoxyglucose, 1-thioglucose, 5-thioglucose) are determined by examining growth after inoculation of 0.1 ml dilutions of 10^7/ml spore suspensions of TEC-142 on YNB+agar plates with increasing concentrations of analogs.
The MIC value of 2-deoxyglucose (DOG) was determined by examining growth after inoculation of 0.1 ml dilutions of 10^7/ml spore suspensions of TEC-142 on YNB+agar plates with increasing concentrations of analog.

[2] = test system: TEC-180; experiment: MIC of 2-deoxyglucose on YNB+agar plates, TEC-180; assay type: cell-based, Talaromyces emersonii; conditions: 10^7/ml spore suspensions of TEC-180 on YNB+agar plates

MIC [2] | Compound | MIC [1]
– | OC[C@@H](O)[C@@H](O)[C@H](O)[C@@H](O)C=S [1-thioglucose] | 4000 mg/L
500 mg/L | O=CC[C@@H](O)[C@H](O)[C@H](O)CO [2-deoxyglucose, 2-deoxy-D-glucose] | 500 mg/L
